By IC50 is commonly meant the concentration at which inhibition is half-maximal. As usually defined, the inhibition is the relative decrease from the control value, in per cent.

In one data set the target is T1, p70S6Kb (Homo sapiens, UniProt Q9UBS0).
T1 construct: purchased Eurofins (Celle Lévescault)
Briefly: Eurofins kinase selectivity profile, p70S6Kb. It is filed as biochemical. As for the experimental part:
(§1) Subsequently, to ascertain whether the high potency of compound 11 was specific for MK2, an additional 380 human recombinant protein kinases were screened.
(§2) To assess the impact of various compounds on MK2 kinase activity, we utilized the ADP‐Glo Assay Kit (Promega) following the manufacturer's instructions. Luminescence measurements were taken using a SpectraMax Paradigm reader. The inhibition percentage was calculated using the following formula: ((specific signalDMSO control − specific signal inhibitor)/(specific signalDMSO control)) × 100%. The IC50 values were determined employing dose–response curve fitting via Prism (Graph Pad). Additionally, Eurofins company (Celle Lévescault) conducted the analysis on compound 11’s inhibitory activity against 380 other human recombinant kinases at various concentrations.

A further data set has as its target T2, MK5 (Homo sapiens, UniProt Q8IW41).
T2 construct: purchased Eurofins (Celle Lévescault)
T2 sequence (Q8IW41 1-473): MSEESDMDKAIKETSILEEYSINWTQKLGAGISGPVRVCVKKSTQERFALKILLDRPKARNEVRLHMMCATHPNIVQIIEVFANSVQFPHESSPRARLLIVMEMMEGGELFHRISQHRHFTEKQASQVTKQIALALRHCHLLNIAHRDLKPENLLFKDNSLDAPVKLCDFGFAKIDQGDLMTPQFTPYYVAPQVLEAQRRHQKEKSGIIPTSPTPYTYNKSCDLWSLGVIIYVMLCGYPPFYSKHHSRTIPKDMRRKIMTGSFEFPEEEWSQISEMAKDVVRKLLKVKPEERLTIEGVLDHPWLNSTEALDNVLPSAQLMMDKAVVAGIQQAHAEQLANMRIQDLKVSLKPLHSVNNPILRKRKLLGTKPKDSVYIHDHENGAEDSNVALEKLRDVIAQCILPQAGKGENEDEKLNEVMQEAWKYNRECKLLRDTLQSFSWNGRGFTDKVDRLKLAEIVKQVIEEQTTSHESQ
Briefly: Eurofins kinase selectivity profile, MK5. In kind it is biochemical. As for the experimental part: as §1, §2

For data set [1], the system named is VEGF mRNA in bone marrow-derived macrophages (BMDMs). Briefly: RT-PCR of VEGF in IL-4/IL-13 stimulated BMDMs. As to conditions: IL-4/IL-13, 12 h. In kind it is cell-based, mouse. The text has this:
Following this line of investigation, we employed siRNA for the transient knockdown of MK2 in THP‐1 monocyte‐ differentiated macrophages. […] M2 macrophages play a pivotal role in promoting tumor angiogenesis through the secretion of critical factors like VEGF, which facilitate tumor neovascularization.[17] […] These findings further validate the significance of MK2 in the M2 polarization of macrophages and illustrate how compound 11, by targeting MK2, suppresses the pro‐tumorigenic phenotype of macrophages.
Total RNA was extracted from cultured cells using the EZ‐press RNA Purification Kit (EZBioscience). Complementary DNA was synthesized using the ABScript III RT Master Mix for qPCR with gDNA remover (ABclonal Technology) and was quantified with primers listed in Table S5. The relative mRNA expression levels were quantified through qPCR using the SYBR green gene expression assay (ABclonal Technology).
Figure S3 Inhibition of pro-tumorigenic M2-like polarization in macrophages by compound 11. (A) Illustrates the treatment effects on various macrophage cells using Western blot analysis post IL-4/IL-13 exposure (30 minutes or the specified time period). (B) Examines CD206 expression in RAW264.7 cells via flow cytometry post 48hours treatment of compound 11 and IL-4/IL-13. […] IL-4/IL-13 (20 ng/mL) served as the stimulation control, while untreated cells were the baseline control. […]

A short description of data set [2]: Cell viability assay (CCK-8), Raw264.7. It is filed as cell-based. As to conditions: Raw264.7 cells (mononuclear macrophage), Raw264.7, mouse mononuclear macrophage, read-out: IC50 (μM) mean ± SD, cytotoxicity. As to the method: (§3) In cellular experiments, cells are seeded into either 6-well or 96-well plates and incubated overnight, proceeding with treatments as described in the figure legends or methods section. The cell inoculation numbers are outlined as follows: For assays measuring cell viability, between 3,000 to 5,000 cells are seeded per well in 96-well plates. For other cellular assays, the seeding density ranges from 5×10^5 to 1×10^6 cells per well in 6-well plates.
(§4) Cells was plated into 96-well plates and incubated overnight prior to introduction of varying concentrations of compounds or control solvent. Following a 72-hour exposure period, cell viability was determined using a Cell Counting Kit-8 assay (Life-iLab, China). Dose-response curves were fitted using a four-parameter method facilitated by SoftMax Pro, which was subsequently used for the computation of IC50 values.

Data set [3] in a line: Cell viability assay (CCK-8), HCC44. It is filed as cell-based. As to conditions: HCC44 cells (non-small cell lung carcinoma), HCC44, human non-small cell lung carcinoma, read-out: IC50 (μM) mean ± SD, cytotoxicity. As for the experimental part: as §3, §4
The nature of data set [4]: Cell viability assay (CCK-8), H1437. As to conditions: H1437 cells (non-small cell lung carcinoma), H1437, human non-small cell lung carcinoma, read-out: IC50 (μM) mean ± SD, cytotoxicity. It is filed as cell-based. As to the method:
as §3, §4

A short description of data set [5]: Cytotoxicity assays, summary over all cell lines. In kind it is cell-based. As to conditions: range over three normal and six tumor cell lines.
From the text: MK2, as a pivotal regulator of the well‐acknowledged p38 inflammation signaling pathway, is increasingly recognized for its critical role in the initiation and progression of cancer. Through an analysis of the clinical data from the TCGA database, we found the significant impact of MK2 on cancer. […] Moreover, macrophages are abundant in cancer, and such abundance correlates with poor prognosis in most malignancie.[17], [18], [19], [20] […] Additionally, the knockdown of MK2 using specific siRNA in macrophages also led to the downregulation of M2 markers. […] Moreover, compound 11’s effect on macrophages extended to inhibition of typical proinflammatory cytokines and crucial factors in inflammation‐driven tumorigenesis. […] These findings bolster the rationale for pursuing the development and application of MK2 inhibitors in the treatment of inflammation‐driven or macrophage‐rich cancers.
as §4

T1 sequence (Q9UBS0 whole entry): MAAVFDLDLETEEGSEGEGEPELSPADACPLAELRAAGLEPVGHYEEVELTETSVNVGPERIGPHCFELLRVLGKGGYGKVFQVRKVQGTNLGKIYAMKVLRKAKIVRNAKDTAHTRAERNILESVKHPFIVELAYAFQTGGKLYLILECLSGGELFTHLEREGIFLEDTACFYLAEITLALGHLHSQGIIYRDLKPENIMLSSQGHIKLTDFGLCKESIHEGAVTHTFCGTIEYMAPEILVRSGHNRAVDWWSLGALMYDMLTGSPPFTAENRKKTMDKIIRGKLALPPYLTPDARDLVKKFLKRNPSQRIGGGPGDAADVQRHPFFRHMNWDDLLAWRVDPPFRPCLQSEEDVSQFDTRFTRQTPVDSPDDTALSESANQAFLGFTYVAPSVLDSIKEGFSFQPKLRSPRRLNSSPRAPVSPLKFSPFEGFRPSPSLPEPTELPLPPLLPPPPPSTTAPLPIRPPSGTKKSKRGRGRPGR

As to `C=CC(=O)Nc1cc(-c2cc(-c3cc4c([nH]3)CCNC4=O)ccn2)ccc1OC(F)(F)F` [compound 11], the half-maximal inhibitory concentration (IC50) on p70S6Kb is greater than 1000 nM; against MK5 it was greater than 100 nM. Moreover, the inhibition at 0.01 µM was -9% on p70S6Kb (p70S6K(h), 10 nM, read-out: Inhibition rate) and 6% at MK5 (MAPKAP-K5/PRAK(h), 10 nM, read-out: Inhibition rate). The inhibition at 0.1 µM on p70S6Kb (p70S6K(h), 100 nM, read-out: Inhibition rate) is -16%; on MK5 (MAPKAP-K5/PRAK(h), 100 nM, read-out: Inhibition rate) it was 29%. Also, on p70S6Kb (p70S6K(h), 1000 nM, read-out: Inhibition rate), the inhibition at 1 µM is -6%. For the same molecule, the inhibition at 0.001 µM on MK5 (MAPKAP-K5/PRAK(h), 1 nM, read-out: Inhibition rate) was -21%. Also, in data set [1], the “effect on relative mRNA level of VEGF” value is “inhibited”. The IC50 at 72 h in data set [2] was 31.7 ± 2.9 µM; in data set [3] it was 32.3 ± 3.3 µM; in data set [4], 33.4 ± 0.6 µM; in data set [5], 30 to 50 µM.

For the origin of these results see PMC11233931, “Remodeling tumor‐associated macrophage for anti‐cancer effects by rational design of irreversible inhibition of mitogen‐activated protein kinase‐activated protein kinase 2” (MedComm, 2024).
